This note sets out measurements from patent publication US20230331652A1, “TRANS-CYCLOOCTENES WITH HIGH REACTIVITY AND FAVORABLE PHYSIOCHEMICAL PROPERTIES” (University of Delaware, priority 2020, published 2023).

“Also recorded” adds a separate entry of the source.

Data set [1] deals with HeLa cells transfected with either HaloTag-H2B-GFP (nucleus) or HaloTag-GAP43-GFP (cytoplasm). Kind of data set: TAMRA-a-TCO permeability assay (HaloTag intracellular labeling). Format: cell-based. The settings on record: 1 μM, 30 min. The method, then:
Here, cells are transfected with a GFP-HaloTag construct fused to a protein that controls subcellular localization, and then labeled by a tetrazine-HaloTag ligand 21. Upon subsequent reaction with fluorescent TAMRA-a-TCO, conjugation is expected only in those cells that express the HaloTag fusion protein, and co-localization of GFP and TAMRA fluorescence is expected.
HeLa Cell Culture and Transfection: HeLa cells were grown in Dulbecco's modified eagle medium (DMEM, Life Technologies) supplemented with 10% (v:v) heat inactivated fetal bovine serum (Life Technologies), 2 mM I-glutamine, and 100 units/mL penicillin/streptomycin (Life Technologies) in a humidified incubator at 37° C./5% CO2. Transfection was performed with cells at 70% confluency using Lipofectamine 3000 according to the manufacturer's instructions. HeLa cells were incubated for 5 hours at 37° C./5% CO2 before being exchanged with antibiotic free growth media for 16-20 hours prior to experimental procedures. […]

For data set [2], the system named is HeLa cells. Kind of data set: TAMRA-TCO comparative washout assay. Format: cell-based. The settings on record: 5 μM, 30 min incubation. From the text: While TCO-derivatives offer rapid labeling kinetics, a consideration for labeling by fluorophore-tagged TCOs has been the background fluorescence due to non-covalent cellular binding that can be ameliorated only by extended washout times. More hydrophilic oxo- and dioxo-trans-cyclooctenes with backbone oxygens offer improvements, but are difficult to synthesize and, for dioxo-TCO, display reduced Diels-Alder kinetics. As shown in FIGS. 5A-5C, the fluorescent conjugates TAM RA-TCO, TAMRA-oxo-TCO and TAMRA-a-TCO were prepared and compared their cellular washout times to unconjugated TAMRA. Thus, HeLa cells were incubated for 30 min with TAMRA-dyes, and cells were initially washed three times with DPBS, and then cell media was exchanged after 10, 40 and 120 minutes. After each wash, cells were imaged live by fluorescence microscopy with illumination at 531 nm and fixed-intensity across all samples. Widefield images of the cells after 3 washes are shown in FIG. 5B; images after the earlier and later washings are shown in FIG. 8. Background fluorescence was quantified by dividing total fluorescence by the number of cells in each image (FIG. 5C).
HeLa cells were seeded at 5×10^3 cells per well in a poly-L-lysine (0.1 mg/mL) coated 48-well plate and allowed to grow for 48 hours in Dulbecco's modified eagle medium (DMEM, Life Technologies) supplemented with 5% FBS (Life Technologies), 1 mM L-glutamine, and 1% penicillin/streptomycin (Life Technologies). Cells were then incubated with media containing 5 μM of TAMRA-TCO, TAMRA-oxo-TCO, or TAMRA-a-TCO 12 (1 mM stock solutions in DMSO, diluted twice into media) for 30 mins at 37° C. All wells were washed three times with DPBS before adding fresh media. Cells were imaged after 2 DPBS washes and again after the 3rd DPBS wash, then incubated for additional time intervals: 10 minutes, 40 minutes, and 2 hour. At each time point, the media was removed from the designated wells and replaced with fresh media before imaging. Images were taken with an EVOS M7000 and all images were taken with the same laser power and gain. Fluorescence intensity was calculated for each sample in 3 replicates using ImageJ and the fluorescence data was normalized with the cell count of each image.

Data set [3] can be described thus: Stability with mercaptoethanol (25 mM) in phosphate buffered D2O, pD=7.4. It is filed as physicochemical. The settings on record: 25 mM mercaptoethanol. The method, then:
(§1) Phosphate buffered D2O (pD=7.4) was prepared by combining anhydrous sodium dihydrogen phosphate (NaH2PO4, 77.1 mg) and anhydrous disodium hydrogen phosphate (Na2HPO4, 204.4 mg) with 20 mL of D2O to make a 0.1 M solution. The pD was measured on a Fisher Scientific AB15 Plus pH meter and pH values were converted to pD by adding 0.4 units. The pD was adjusted to 7.4 with DCI (35 wt. % in D2O) and NaOD (40 wt. % in D2O) as necessary.
TCO 14 (3.1 mg, 18 μmol) in a solution of mercaptoethanol in phosphate buffered D2O (720 μL, 18 μmol, 25 mM, pD=7.4) was monitored by quantitative 1H NMR on a 600 MHz instrument to observe the decomposition of the trans-isomer over time. Methyl tert-butyl ether (2.1 μL, 18 μmol) was used as an internal standard. After 4 hours, 93% of 14 remained and 49% of 14 remained after 20 hours. (FIG. 6C). The results were plotted using Prism software (Version 8.00, GraphPad Software Inc). A waterfall plot of the ^1H NMR spectra is provided.
TCO 4a (2.3 mg, 18 μmol) in a solution of mercaptoethanol in phosphate buffered D2O (720 μL, 18 μmol, 25 mM, pD=7.4) was monitored by quantitative 1H NMR on a 600 MHz instrument to observe the decomposition of the trans-isomer over time. Methyl tert-butyl ether (2.1 μL, 18 μmol) was used as an internal standard. After 4 hours, 89% of 4a and 49% of 4a remained after 20 hours. (FIG. 6C). The results were plotted using Prism software (Version 8.00, GraphPad Software Inc). A waterfall plot of the ^1H NMR spectra is provided.

The nature of data set [4]: Stopped-flow kinetics of the Diels-Alder reaction with tetrazine 20. Format: physicochemical. The settings on record: for Kobs: 95:5 PBS/MeOH, in s-1 (unit assumed). The method, then: The kinetics for the reaction of a-TCO derivative 14 toward a 3,6-dipyridyl-s-tetrazinyl succinamic acid derivative 20 were measured by stopped flow kinetics at 25° C. in 95:5 PBS:MeOH (FIG. 4A).
Stopped-flow kinetics measurements were performed on a SX18MV-R stopped-flow spectrophotometer (Applied Photophysics Ltd.) with temperature control (25° C.).
The reaction between 5-ax-hydroxy-5-eq-(2-hydroxyethyl)-trans-cyclooctene 14 and 3,6-dipyridyl-s-tetrazine-mono-succinamic acid 20 was monitored by a SX18MV-R stopped-flow spectrophotometer (Applied Photophysics Ltd.) at 325 nm by measuring the exponential decay of tetrazine under pseudo-first order conditions. Solutions of 14 (0.98, 1.46, 1.95, and 2.63 mM in 9:1 PBS/MeOH) and tetrazine (0.1 mM in PBS) were mixed in the stopped-flow spectrophotometer in equal volumes resulting in final concentrations of 0.49 mM, 0.73 mM, 0.97 mM, and 1.31 mM of 14 and 0.05 mM of tetrazine in 95:5 PBS/MeOH. Three independent samples were prepared for each TCO concentration and measurements were taken in duplicate every 0.1 ms for 0.1 sat 25° C. The observed rates kobs for each run were determined by nonlinear regression analysis of the data points using Prism software (Version 8.00, GraphPad Software Inc). The average kobs values were plotted against the concentrations of 14 to obtain the bimolecular rate constant k2 from the slope of the plot.
The observed rates (kobs) of 5-ax-hydroxy-5-eq-(2-hydroxyethyl)-trans-cyclooctene 14 (10-30 equivalents) and 3,6-dipyridyl-s-tetrazine-mono-succinamic acid 20 were measured using stopped-flow kinetics. The final concentrations of 14 after injection were (A) 0.49 mM, (B) 0.73 mM, (C) 0.97 mM, and (D) 1.31 mM and the concentration of tetrazine was 0.05 mM in 95:5 PBS/MeOH at 25° C. Duplicate measurements were obtained for three independent samples for each concentration of 14.
The reaction between 5-ax-hydroxy-trans-cyclooctene 4a and 3,6-dipyridyl-s-tetrazine-mono-succinamic acid 20 was monitored by a SX18MV-R stopped-flow spectrophotometer (Applied Photophysics Ltd.) at 325 nm by measuring the exponential decay of tetrazine under pseudo-first order conditions. Solutions of 4a (100, 200, 300, and 400 μM in 9:1 PBS/MeOH) and tetrazine (20 μM in PBS) were mixed in the stopped-flow […] 95:5 PBS/MeOH. Three independent samples were prepared for each TCO concentration and measurements were taken in duplicate every 0.1 ms for 0.2 s at 25° C. The observed rates kobs for each run were determined by nonlinear regression analysis of the data points using Prism software (Version 8.00, GraphPad Software Inc). The average kobs values were plotted against the concentrations of 4a to obtain the bimolecular rate constant k2 from the slope of the plot.
The observed rates (kobs) of 5-ax-hydroxy-trans-cyclooctene 4a (5-20 equivalents) and 3,6-dipyridyl-s-tetrazine-mono-succinamic acid 20 were measured using stopped-flow kinetics. […]

Data set [5] is described as follows: Stability in methanol-d4 (35 mM) by quantitative 1H NMR. It is filed as physicochemical. The settings on record: 35 mM in methanol-d4, after 7 days. The method, then:
A solution of 14 (4.5 mg, 26 μmol) in methanol-d4 (750 μL) was monitored by quantitative ^1H NMR on a 600 MHz instrument to observe the decomposition of the trans-isomer over time. Methyl tert-butyl ether (3.1 μL, 26 μmol) was used as an internal standard. […] The results were plotted using Prism software (Version 8.00, GraphPad Software Inc). A waterfall plot of the ^1H NMR spectra is provided.
A solution of 4a (3.3 mg, 26 μmol) in methanol-d4 (750 μL) was monitored by quantitative ^1H NMR on a 600 MHz instrument to observe the decomposition of the trans-isomer over time. Methyl tert-butyl ether (3.1 μL, 26 μmol) was used as an internal standard. […] The results were plotted using Prism software (Version 8.00, GraphPad Software Inc). A waterfall plot of the ^1H NMR spectra is provided.

The nature of data set [6]: Stability in phosphate buffered D2O, pD=7.4 (33 mM) by quantitative 1H NMR. Format: physicochemical. The method, then: as §1
A solution of 14 (4.3 mg, 25 μmol) in phosphate buffered D2O (750 μL, pD=7.4) was monitored by quantitative ^1H NMR on a 600 MHz instrument to observe the decomposition of the trans-isomer over time. Methyl tert-butyl ether (3.0 μL, 26 μmol) was used as an internal standard. After 1 day, 90% of 14 remained and after 5 days, 39% remained (FIG. 6B). The results were plotted using Prism software (Version 8.00, GraphPad Software Inc). A waterfall plot of the ^1H NMR spectra is provided.
A solution of 4a (3.2 mg, 25 μmol) in phosphate buffered D2O (750 μL, pD=7.4) was monitored by quantitative ^1H NMR on a 600 MHz instrument to observe the decomposition of the trans-isomer over time. Methyl tert-butyl ether (3.0 μL, 26 μmol) was used as an internal standard. After 1 day, 85% of 4a remained and after 5 days, 35% remained (FIG. 6B). The results were plotted using Prism software (Version 8.00, GraphPad Software Inc). A waterfall plot of the ^1H NMR spectra is provided.

On to `CN(C)c1ccc2c(-c3ccc(C(=O)NCCCCCNC(=O)C[C@]4(O)CC/C=C/CCC4)cc3C(=O)[O-])c3ccc(=[N+](C)C)cc-3oc2c1` [TAMRA-a-TCO, (R,E)-2-(6-(dimethylamino)-3-(dimethyliminio)-3H-xanthen-9-yl)-5-((5-(2-(1-hydroxycyclooct-4-en-1-yl)acetamido)pentyl)carbamoyl)benzoate], for which the cell permeability result in data set [1] (live HeLa cells, after MeTz-Halo 21 (10 μM)) is reported as “cell permeable”. Moreover, the “colocalization of TAMRA signal with GFP” value in data set [1] (nuclear (H2B) and cytoplasmic (GAP43) HaloTag targets, confocal microscopy) was “subcellular colocalization of GFP and TAMRA fluorescence; also recorded: selective colocalization of the TAMRA signal with GFP was observed”. Further, the “reduction in background fluorescence relative to TAMRA-TCO” value in data set [2] (after initial 3× wash) was found to be 85%. Besides, the “background fluorescence / washout after 2 hours” value in data set [2] (media exchanges up to 2 hours) is given as “essentially complete”.

Take `OCC[C@]1(O)CC/C=C/CCC1` [Compound 14, 5-ax-Hydroxy-5-eq-(2-hydroxyethyl)-trans-cyclooctene]: the TCO remaining in data set [3] (phosphate buffered D2O pD 7.4, 4 hours) is 93%; in data set [3] (phosphate buffered D2O pD 7.4, 20 hours) it was 49%; in data set [6] (phosphate buffered D2O pD 7.4, 1 day (24 h), room temperature) it was 90%; in data set [6] (phosphate buffered D2O pD 7.4, 5 days), 39%. Besides, the Kobs in data set [4] (A (0.49 mM) of 14, 0.05 mM tetrazine, 25° C.) is given as 76.13; in data set [4] (B (0.73 mM) of 14, 0.05 mM tetrazine, 25° C.) it was 121.4; in data set [4] (C (0.97 mM) of 14, 0.05 mM tetrazine, 25° C.), 162.4; in data set [4] (D (1.31 mM) of 14, 0.05 mM tetrazine, 25° C.), 200.2. For the same molecule, the “reactivity relative to oxo-TCO” value in data set [4] (comparison of k2 with oxo-TCO) is “more reactive than oxo-TCO”. Also, in data set [4] (ratio of k2 versus axial isomer 4a), the “reactivity toward 20 relative to 4a” value is reported as “more than twice as reactive”. Moreover, the “reactivity toward 20 relative to 4b” value in data set [4] (ratio of k2 versus equatorial isomer 4b) was roughly 7 times. Also, in data set [4] (toward tetrazine 20, stopped flow, 25° C., 95:5 PBS:MeOH), the “second-order rate constant k2” value is 150,000±8000 M^−1s^−1. Besides, the “decomposition of the trans-isomer” value in data set [5] is given as “no observable decomposition”.
